Where a SMILES comes first, the peptide text is derived from it. Bridges are numbered along the chain shown (N, C = ends). [ ]: non-standard residue; d: D form. The star is where a group is joined. ξ: configuration not given here. Phe(3-CF3) = N[C@@H](Cc1cccc(C(F)(F)F)c1)C(=O)O; Ala(morpholin-4-yl) = N[C@@H](CN1CCOCC1)C(=O)O; Phe(4-COOH) = N[C@@H](Cc1ccc(C(=O)O)cc1)C(=O)O; Trp(7-F) = N[C@@H](Cc1c[nH]c2c(F)cccc12)C(=O)O; Bip = N[C@@H](Cc1ccc(-c2ccccc2)cc1)C(=O)O; Phe(3-Me) = Cc1cccc(C[C@H](N)C(=O)O)c1; 2Nal = N[C@@H](Cc1ccc2ccccc2c1)C(=O)O; Val(3-OH) = CC(C)(O)[C@H](N)C(=O)O; 4Pal = N[C@@H](Cc1ccncc1)C(=O)O; Cha = N[C@@H](CC1CCCCC1)C(=O)O; Cit = NC(=O)NCCC[C@H](N)C(=O)O; Thr(3ξ) = CC(O)[C@H](N)C(=O)O; hSer = N[C@@H](CCO)C(=O)O; Carboxymethyl = O=C(O)C*; NMeA = CN[C@@H](C)C(=O)O; Orn = NCCC[C@H](N)C(=O)O; Dab = NCC[C@H](N)C(=O)O; Dap = NC[C@H](N)C(=O)O
target: T1, human PD-1 / PD-L1-Ig binding on Jurkat cell line over-expressing human PD-1 (Jurkat-PD-1) (Homo sapiens, UniProt Q15116); assay: Jurkat-PD-1 Cell Binding High-Content Screening Assay (CBA); format: cell-based; conditions: Jurkat HPD1_PDL1 IC50, Jurkat-PD-1 cells, PE-labeled PD-L1-Ig 20 nM final
T1 construct: expressed in transfected cells; host or cells: Jurkat
T1 sequence (Q15116 25-288): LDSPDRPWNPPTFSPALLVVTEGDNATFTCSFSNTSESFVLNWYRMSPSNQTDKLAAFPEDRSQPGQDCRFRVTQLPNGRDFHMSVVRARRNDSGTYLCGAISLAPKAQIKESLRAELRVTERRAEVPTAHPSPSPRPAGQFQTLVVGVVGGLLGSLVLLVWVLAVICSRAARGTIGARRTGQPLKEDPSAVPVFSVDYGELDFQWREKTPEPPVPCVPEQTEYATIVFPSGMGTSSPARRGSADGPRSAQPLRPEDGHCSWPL
Outline: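 Binding of fluorescent PD-L1-Ig (phycoerythrin linked via the Ig tag, 20 nM final) to PD-1-overexpressing Jurkat cells was imaged after a 2 h, 37° C compound pretreatment and 1 hour ligand incubation.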

SMILES | IC50
CC[C@H](C)[C@@H]1NC(=O)[C@H](Cc2ccc(-c3ccccc3)cc2)NC(=O)[C@H](C(C)C)NC(=O)[C@H](Cc2cccc(C(F)(F)F)c2)NC(=O)[C@H](CC(=O)O)NC(=O)[C@H](Cc2ccc(OCC(=O)O)cc2)NC(=O)[C@H](Cc2ccncc2)NC(=O)CSC[C@@H](C(=O)N[C@@H](C)C(N)=O)NC(=O)[C@H]([C@@H](C)O)NC(=O)[C@H](C(C)C)NC(=O)[C@H](CC2CCCCC2)NC(=O)[C@H](CCN)NC(=O)[C@@H](CC(C)C)NC(=O)[C@H](CCCN)NC1=O [Compound 1567] | 25.8 nM

same assay, conditions: Jurkat-PD-1 cells, PE-labeled PD-L1-Ig 20 nM final; read-out: Jurkat HPD1_PDL1 IC50

SMILES | IC50
CC(C)C[C@@H]1NC(=O)[C@H](Cc2c[nH]c3ccccc23)NC(=O)[C@H](CC(=O)O)NC(=O)[C@H](Cc2ccc(OCC(=O)O)cc2)NC(=O)[C@H](CN)NC(=O)CSC[C@@H](C(=O)N[C@@H](C)C(N)=O)NC(=O)[C@H]([C@@H](C)O)NC(=O)[C@H](C(C)C)NC(=O)[C@H](CC(C)C)NC(=O)[C@H](CCN)NC(=O)[C@@H](CC(C)C)NC(=O)[C@H](CCCN)NC(=O)[C@H](CCCNC(N)=O)NC(=O)[C@H](Cc2ccc(-c3ccccc3)cc2)NC1=O [Compound 1304] ({CH2CO}-[Dap]Y(Carboxymethyl)DWL[Bip][Cit][Orn][dL][Dab]LVTCA-NH2; thioether N-14) | 26.5 nM
CC(C)C[C@H]1NC(=O)[C@H](CCCN)NC(=O)[C@H](CCCNC(N)=O)NC(=O)[C@H](Cc2ccc(-c3ccccc3)cc2)NC(=O)[C@H](C(C)C)NC(=O)[C@H](Cc2c[nH]c3ccccc23)NC(=O)[C@H](CC(=O)O)NC(=O)[C@H](Cc2ccc(OCC(=O)O)cc2)NC(=O)[C@H](CCN)NC(=O)CSC[C@@H](C(=O)N[C@@H](CCN)C(N)=O)NC(=O)[C@H](C(C)O)NC(=O)[C@H](C(C)C)NC(=O)[C@H](CC2CCCCC2)NC(=O)[C@H](CCN)NC1=O (stereo partly drawn) [Compound 2638] ({CH2CO}-[Dab]Y(Carboxymethyl)DWV[Bip][Cit][Orn][dL][Dab][Cha]V[Thr(3ξ)]C[Dab]-NH2; thioether N-14) | 16.1 nM
CC(C)C[C@H]1NC(=O)[C@H](CCCN)NC(=O)[C@H](C(C)C)NC(=O)[C@H](Cc2ccc(-c3ccccc3)cc2)NC(=O)[C@H](C(C)C)NC(=O)[C@H](Cc2c[nH]c3c(F)cccc23)NC(=O)[C@H](CC(=O)O)NC(=O)[C@H](Cc2ccc(OCC(=O)O)cc2)NC(=O)[C@H](CN)NC(=O)CSC[C@@H](C(=O)N[C@@H](CCN)C(N)=O)NC(=O)[C@H]([C@@H](C)O)NC(=O)[C@H](C(C)C)NC(=O)[C@H](CC2CCCCC2)NC(=O)[C@H](CCN)NC1=O [Compound 2020] ({CH2CO}-[Dap]Y(Carboxymethyl)D[Trp(7-F)]V[Bip]V[Orn][dL][Dab][Cha]VTC[Dab]-NH2; thioether N-14) | 13.1 nM
CC(C)C[C@@H]1NC(=O)[C@H](Cc2c[nH]c3ccccc23)NC(=O)[C@H](CC(=O)O)NC(=O)[C@H](Cc2ccncc2)NC(=O)[C@H](CN)NC(=O)CSC[C@@H](C(=O)NCC(N)=O)NC(=O)[C@H](CO)NC(=O)[C@H](C(C)C)NC(=O)[C@H](CC(C)C)NC(=O)[C@H](CC(N)=O)NC(=O)[C@@H](CC(C)C)NC(=O)[C@H](CN)NC(=O)[C@H](C(C)C)NC(=O)[C@H](Cc2ccc(-c3ccccc3)cc2)NC1=O [Compound 1277] ({CH2CO}-[Dap][4Pal]DWL[Bip]V[Dap][dL]NLVSCG-NH2; thioether N-14) | 8.6 nM
CC(C)C[C@@H]1NC(=O)[C@H](Cc2c[nH]c3ccccc23)NC(=O)[C@H](CC(=O)O)NC(=O)[C@H](Cc2ccc(O)cc2)NC(=O)[C@H](Cc2ccccc2)NC(=O)CSC[C@@H](C(=O)N[C@@H](C)C(N)=O)NC(=O)[C@H]([C@@H](C)O)NC(=O)[C@H](C(C)C)NC(=O)[C@H](CC(C)C)NC(=O)[C@H](CCN)NC(=O)[C@@H](C)NC(=O)[C@H](CN)NC(=O)[C@H](C(C)C)NC(=O)[C@H](Cc2ccc(-c3ccccc3)cc2)NC1=O [Compound 1097] ({CH2CO}-FYDWL[Bip]V[Dap][dA][Dab]LVTCA-NH2; thioether N-14) | 132 nM
CC(C)C[C@H]1NC(=O)[C@H](CCCN)NC(=O)[C@H](CCC(=O)O)NC(=O)[C@H](Cc2ccc(-c3ccccc3)cc2)NC(=O)[C@H](C(C)C)NC(=O)[C@H](Cc2c[nH]c3ccccc23)NC(=O)[C@H](CCO)NC(=O)[C@H](Cc2ccc(OCC(=O)O)cc2)NC(=O)[C@H](CN)NC(=O)CSC[C@@H](C(=O)N[C@@H](C)C(N)=O)NC(=O)[C@H]([C@@H](C)O)NC(=O)[C@H](C(C)C)NC(=O)[C@H](CC2CCCCC2)NC(=O)[C@H](CCN)NC1=O [Compound 1499] ({CH2CO}-[Dap]Y(Carboxymethyl)[hSer]WV[Bip]E[Orn][dL][Dab][Cha]VTCA-NH2; thioether N-14) | 663 nM

Next, values leading:

IC50 | SMILES
2.3 nM | CC(C)C[C@H]1NC(=O)[C@H](CCCN)NC(=O)[C@H](Cc2ccc(C(=O)O)cc2)NC(=O)[C@H](Cc2ccc(-c3ccccc3)cc2)NC(=O)[C@H](Cc2ccc3ccccc3c2)NC(=O)[C@H](Cc2cccc(C(F)(F)F)c2)NC(=O)[C@H](CC(=O)O)NC(=O)[C@H](Cc2ccc(C(=O)O)cc2)NC(=O)[C@H](CN2CCOCC2)NC(=O)CSC[C@@H](C(=O)N[C@@H](CCN)C(N)=O)NC(=O)[C@H](CCC(=O)O)NC(=O)[C@H](C(C)C)NC(=O)[C@H](CC2CCCCC2)NC(=O)[C@H](CCN)NC1=O [Example 2738] ({CH2CO}-[Ala(morpholin-4-yl)][Phe(4-COOH)]D[Phe(3-CF3)][2Nal][Bip][Phe(4-COOH)][Orn][dL][Dab][Cha]VEC[Dab]-NH2; thioether N-14)
40.8 nM | CC(C)C[C@H]1NC(=O)[C@H](CCCN)NC(=O)[C@H](CCC(=O)O)NC(=O)[C@H](Cc2ccc(-c3ccccc3)cc2)NC(=O)[C@H](C(C)C)NC(=O)[C@H](Cc2c[nH]c3ccccc23)NC(=O)[C@H](CC(=O)O)NC(=O)[C@H](Cc2ccc(-c3ccc(C(=O)O)cc3)cc2)NC(=O)[C@H](Cc2ccncc2)NC(=O)CSC[C@@H](C(=O)N[C@@H](C)C(N)=O)NC(=O)[C@H]([C@@H](C)O)NC(=O)[C@H](C(C)C)NC(=O)[C@H](CC2CCCCC2)NC(=O)[C@H](CCN)NC1=O [Compound 2169]
481 nM | Cc1cccc(C[C@@H]2NC(=O)[C@H](CC(=O)O)NC(=O)[C@H](Cc3ccc(C(=O)O)cc3)NC(=O)[C@H](C)N(C)C(=O)CSC[C@@H](C(=O)N[C@@H](CCN)C(N)=O)NC(=O)[C@H](CCC(=O)O)NC(=O)[C@H](C(C)(C)O)NC(=O)[C@H](CC3CCCCC3)NC(=O)[C@H](CCN)NC(=O)[C@@H](CC(C)C)NC(=O)[C@H](CCCN)NC(=O)[C@H](Cc3ccc(OCC(=O)O)cc3)NC(=O)[C@H](Cc3ccc(-c4ccccc4)cc3)NC(=O)[C@H](Cc3ccc(OCC(=O)O)cc3)NC2=O)c1 [Compound 2690] ({CH2CO}-[NMeA][Phe(4-COOH)]D[Phe(3-Me)]Y(Carboxymethyl)[Bip]Y(Carboxymethyl)[Orn][dL][Dab][Cha][Val(3-OH)]EC[Dab]-NH2; thioether N-14)
36.6 nM | CC(C)C[C@@H]1NC(=O)[C@H](Cc2c[nH]c3ccccc23)NC(=O)[C@H](CC(=O)O)NC(=O)[C@H](Cc2ccc(O)cc2)NC(=O)[C@H](Cc2ccccc2)NC(=O)CSC[C@@H](C(=O)N[C@@H](C)C(N)=O)NC(=O)[C@H](CO)NC(=O)[C@H](C(C)C)NC(=O)[C@H](CC(C)C)NC(=O)[C@H](CC(N)=O)NC(=O)[C@@H](CC(C)C)NC(=O)[C@H](CCCN)NC(=O)[C@H](CCCNC(N)=O)NC(=O)[C@H](Cc2ccc(-c3ccccc3)cc2)NC1=O [Compound 1234] ({CH2CO}-FYDWL[Bip][Cit][Orn][dL]NLVSCA-NH2; thioether N-14)
20.5 nM | Cc1cccc(C[C@@H]2NC(=O)[C@H](CC(=O)O)NC(=O)[C@H](Cc3ccc(OCC(=O)O)cc3)NC(=O)[C@H](CN)NC(=O)CSC[C@@H](C(N)=O)NC(=O)[C@H]([C@@H](C)O)NC(=O)[C@H](C(C)C)NC(=O)[C@H](CC3CCCCC3)NC(=O)[C@H](CCC(=O)O)NC(=O)[C@@H](CC(C)C)NC(=O)[C@H](CCCN)NC(=O)[C@H](Cc3ccc(OCC(=O)O)cc3)NC(=O)[C@H](Cc3ccc(-c4ccccc4)cc3)NC(=O)[C@H](Cc3ccc(OCC(=O)O)cc3)NC2=O)c1 [Compound 1775] ({CH2CO}-[Dap]Y(Carboxymethyl)D[Phe(3-Me)]Y(Carboxymethyl)[Bip]Y(Carboxymethyl)[Orn][dL]E[Cha]VTC-NH2; thioether N-14)
24.2 nM | Cc1cccc(C[C@@H]2NC(=O)[C@H](CC(=O)O)NC(=O)[C@H](Cc3ccc(OCC(=O)O)cc3)NC(=O)[C@H](Cc3ccc(OCC(=O)O)cc3)NC(=O)CSC[C@@H](C(=O)NCC(N)=O)NC(=O)[C@H](CO)NC(=O)[C@H](C(C)C)NC(=O)[C@H](CC3CCCCC3)NC(=O)[C@H](CCN)NC(=O)[C@@H](CC(C)C)NC(=O)[C@H](CCCN)NC(=O)[C@H](C(C)C)NC(=O)[C@H](Cc3ccc(-c4ccccc4)cc3)NC(=O)[C@H](CC(C)C)NC2=O)c1 [Compound 1650] ({CH2CO}-Y(Carboxymethyl)Y(Carboxymethyl)D[Phe(3-Me)]L[Bip]V[Orn][dL][Dab][Cha]VSCG-NH2; thioether N-14)
13.2 nM | CCC(C)[C@@H]1NC(=O)[C@H](Cc2ccc(-c3ccccc3)cc2)NC(=O)[C@H](C(C)C)NC(=O)[C@H](Cc2cc(OC)c(F)cc2F)NC(=O)[C@H](CC(=O)O)NC(=O)[C@H](Cc2ccc(OCC(=O)O)cc2)NC(=O)[C@H](CN)NC(=O)CSC[C@@H](C(=O)N[C@@H](C)C(N)=O)NC(=O)[C@H]([C@@H](C)O)NC(=O)[C@H](C(C)C)NC(=O)[C@H](CC2CCCCC2)NC(=O)[C@H](CCN)NC(=O)[C@@H](CC(C)C)NC(=O)[C@H](CCCN)NC1=O (stereo partly drawn) [Compound 2246]
16.8 nM | CC(C)C[C@H]1NC(=O)[C@H](CCCN)NC(=O)[C@H](CN)NC(=O)[C@H](Cc2ccc(-c3ccccc3)cc2)NC(=O)[C@H](C(C)C)NC(=O)[C@H](Cc2c[nH]c3ccccc23)NC(=O)[C@H](CC(=O)O)NC(=O)[C@H](Cc2ccc(O)cc2)NC(=O)[C@H](CC(N)=O)NC(=O)CSC[C@@H](C(=O)N[C@@H](C)C(N)=O)NC(=O)[C@H]([C@@H](C)O)NC(=O)[C@H](C(C)C)NC(=O)[C@H](CC2CCCCC2)NC(=O)[C@H](CCN)NC1=O [Compound 1380]
